How the values were obtained:
Format in all cases: cell-based
[1] = target: T1, ERα (Homo sapiens, UniProt P03372); assay: Transient transfection luciferase reporter, ERα transactivation in COS-7 cells; conditions: TSA 3 μM, COS-7 cells
T1 construct: expressed in transfected cells; host or cells: COS-7
T1 sequence (P03372 1-595): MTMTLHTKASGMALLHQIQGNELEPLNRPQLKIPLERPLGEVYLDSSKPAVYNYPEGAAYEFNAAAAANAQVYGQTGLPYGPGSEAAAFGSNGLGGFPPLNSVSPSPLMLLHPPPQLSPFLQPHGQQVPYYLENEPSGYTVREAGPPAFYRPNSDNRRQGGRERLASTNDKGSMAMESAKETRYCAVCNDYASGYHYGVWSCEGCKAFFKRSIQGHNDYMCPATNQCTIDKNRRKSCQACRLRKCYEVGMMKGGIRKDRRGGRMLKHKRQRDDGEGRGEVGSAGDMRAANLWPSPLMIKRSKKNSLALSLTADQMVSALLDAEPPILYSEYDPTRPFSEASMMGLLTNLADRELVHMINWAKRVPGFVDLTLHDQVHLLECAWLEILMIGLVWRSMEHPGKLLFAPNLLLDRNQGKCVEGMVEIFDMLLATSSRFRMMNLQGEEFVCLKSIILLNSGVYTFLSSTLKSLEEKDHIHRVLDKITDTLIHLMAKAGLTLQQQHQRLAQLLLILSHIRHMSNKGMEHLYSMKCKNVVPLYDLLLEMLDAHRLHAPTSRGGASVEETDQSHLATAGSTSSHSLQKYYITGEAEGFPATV
Protocol: (§1) All cell lines were cultured under the recommended conditions. COS-7 cells grown in […] in DMEM without phenol red, supplemented with 10% FBS were transfected in medium without serum with lipofectamine 2000 (Invitrogen, Burlington, Ont.) with 100 ng of nuclear receptor expression vectors as indicated, 200 ng of TIF-2 or TIF-2.1, as indicated, 250 ng of reporter plasmid, 250 ng of infemal control vector pCMV-βgal, and various concentrations of LCoR/pSG5 or LCoR-LSKAA/pSG5 expression vectors and pSG5 carrier. Medium was replaced 24 h after transfection by a medium containing charcoal-stripped serum and ligand (100 nM) and TSA (3 μM) for 18 h, as indicated. Cells were harvested in 200 […] of reporter lysis buffer (Promega).
(§2) COS-7 cells were cotransfected with expression vectors for ERα HEG0 (A and C) or GR (D) or PR (F) or VDR (H), ERE3-TATA-pXP2 (A and C), GRE5/pXP2 (D and F) or VDRE3tk/pXP2 (H) luciferase reporter vectors, pCMV-β-gal as internal control, and LCoR/pSG5 or LSKAA/pSG5 expression vectors as indicated. Cells were treated with 10^−7M of hormones (solid bars) or vehicle (open bars). Normalized luciferase activities (RLU) are the means±SEM from at least 3 experiments. […] Cells were transfected as in FIG. 5A with LCoR, TIF-2 or TIF2.1 as indicated. […]

[2] = target: T2, PR (Homo sapiens, UniProt P06401); assay: Transient transfection luciferase reporter, PR transactivation in COS-7 cells; conditions: TSA 3 μM, COS-7 cells
T2 construct: expressed in transfected cells; host or cells: COS-7
T2 sequence (P06401 1-933): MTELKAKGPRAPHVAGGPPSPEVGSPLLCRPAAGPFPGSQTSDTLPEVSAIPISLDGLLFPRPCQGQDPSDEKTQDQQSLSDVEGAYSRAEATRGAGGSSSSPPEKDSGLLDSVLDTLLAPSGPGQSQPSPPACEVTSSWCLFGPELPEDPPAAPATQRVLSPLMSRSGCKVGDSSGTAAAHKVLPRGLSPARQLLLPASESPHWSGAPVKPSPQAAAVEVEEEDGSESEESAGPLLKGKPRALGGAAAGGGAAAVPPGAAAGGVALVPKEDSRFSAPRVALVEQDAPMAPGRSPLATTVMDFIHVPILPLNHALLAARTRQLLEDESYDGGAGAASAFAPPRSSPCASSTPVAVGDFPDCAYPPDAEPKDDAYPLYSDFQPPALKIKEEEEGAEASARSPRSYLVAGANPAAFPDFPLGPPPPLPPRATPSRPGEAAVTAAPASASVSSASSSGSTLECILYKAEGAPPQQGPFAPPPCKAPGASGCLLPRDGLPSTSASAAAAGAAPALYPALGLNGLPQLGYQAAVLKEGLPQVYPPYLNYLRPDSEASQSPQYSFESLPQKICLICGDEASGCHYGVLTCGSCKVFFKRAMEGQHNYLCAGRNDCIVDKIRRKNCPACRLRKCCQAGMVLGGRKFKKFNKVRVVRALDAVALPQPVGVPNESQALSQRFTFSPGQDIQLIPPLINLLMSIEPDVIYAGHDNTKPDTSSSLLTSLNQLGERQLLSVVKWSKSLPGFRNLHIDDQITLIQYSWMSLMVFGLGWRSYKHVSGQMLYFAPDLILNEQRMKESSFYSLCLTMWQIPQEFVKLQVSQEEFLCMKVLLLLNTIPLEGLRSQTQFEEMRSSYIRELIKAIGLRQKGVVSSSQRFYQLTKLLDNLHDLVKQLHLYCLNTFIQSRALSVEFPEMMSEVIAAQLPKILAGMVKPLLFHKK
Protocol: as §1, §2

[3] = test system: 5×17 mer-tk promoter; assay: GAL4-LCoR repression of 5×17 mer-tk promoter in COS-7 cells; conditions: TSA 3 μM
Protocol: as §1, §2

Q: For `CC(/C=C/C(=O)NO)=C\[C@@H](C)C(=O)c1ccc(N(C)C)cc1` [TSA, trichostatin A], which “effect on LCoR-dependent repression of ERα function” value [1] is on record?
A: completely abolished

Q: What about the “effect on LCoR repression of PR function” value [2] of the same molecule?
A: little or no effect

Q: What about the “effect on repression by GAL-LCoR” value [3] of the same molecule?
A: little or no effect
